The source of these data is paper PMC7536148, “Interactions of zearalanone, α-zearalanol, β-zearalanol, zearalenone-14-sulfate, and zearalenone-14-glucoside with serum albumin” (Mycotoxin Research, 2020).

“And” between values parts separate entries of the source, which are not always exact repeats. Equal entries are not always repeated. Structures can show the parent of a compound that is named as a salt. Where two headings read alike, the source gives them in different places. Marks after values point to notes of the source that are not given here.

Series [1] addresses T1, human serum albumin (HSA) (Homo sapiens, UniProt P02768).
T1 construct: purchased Sigma-Aldrich
Briefly: Fluorescence quenching of human serum albumin by mycotoxins. The format is binding. Conditions: for logKSV ± SEM (Stern-Volmer quenching constant): HSA 2 μmol/L, PBS pH 7.4, room temperature, λex = 295 nm, λem = 340 nm; for Kd: logK ± SEM (binding constant of mycotoxin-albumin complex), HSA, quenching data, Hyperquad2006 fitting, 1:1 stoichiometry, PBS pH 7.4. Here is the method:
(§1) Fluorescence spectroscopic measurements were carried out employing a Hitachi F-4500 fluorescence spectrophotometer (Hitachi, Tokyo, Japan) to investigate the effect of increasing mycotoxin concentrations on the fluorescence signal of albumins as well as on the emission spectrum of warfarin-HSA complex. Our studies were executed in phosphate-buffered saline (PBS, pH 7.4; 8.00 g/L NaCl, 0.20 g/L KCl, 1.81 g/L Na2HPO4 × 2H2O, 0.24 g/L KH2PO4) at room temperature, in the presence of air.
(§2) For spectral correction of fluorescence emission intensities, absorption spectra of mycotoxins were also recorded applying a Jasco-V730 spectrophotometer (Jasco, Tokyo, Japan). The inner-filter effect of mycotoxins was corrected as described previously (Hu and Liu [2015]; Faisal et al. [2018]):1 Icor=Iobs×e^Aex+Aem/2 where Icor and Iobs indicate the corrected and observed fluorescence emission intensities, respectively. Aex and Aem denote the absorbance of mycotoxins at the excitation and emission wavelengths used, respectively.
(§3) To investigate the stability of mycotoxin-albumin complexes, mycotoxin-induced quenching effects on the intrinsic fluorescence of albumins were tested. The emission signal of albumins (2 μmol/L; λex = 295 nm; […]) were measured in the presence of increasing concentrations of mycotoxins (0.0, 1.0, 2.0, 3.0, 4.0, 5.0, 6.0, 7.0, 8.0, 9.0, and 10.0 μmol/L). Stern-Volmer quenching constants (KSV; unit: L/mol) were determined employing the Stern-Volmer equation (Ma et al. [2018]; Faisal et al. [2018]):2 I0/I=1+KSV×Q where Q is the concentration of the mycotoxin (unit: mol/L). I0 and I are the fluorescence emission signal of albumin in the absence and presence of mycotoxins, respectively. Z14S and Z14G exert fluorescence; their excitation and emission spectra, under different environmental conditions, have been reported previously (Faisal et al. [2019], [2020]).
(§4) Binding constants (K; unit: L/mol) of mycotoxin-albumin complexes were determined by nonlinear fitting employing Hyperquad2006 software, as described in details in our previous studies (Sueck et al. [2018]; Faisal et al. [2018]).

Series [2] concerns the target T2, bovine serum albumin (BSA) (Bos taurus, UniProt P02769).
T2 construct: purchased Sigma-Aldrich
Briefly: Fluorescence quenching of bovine serum albumin by mycotoxins. In kind it is binding. The conditions noted are these: for logKSV ± SEM (Stern-Volmer quenching constant): BSA 2 μmol/L, PBS pH 7.4, room temperature, λex = 295 nm, λem = 340 nm. The method, then:
as §1, §2, §3, §4

In series [3] the target is T3, porcine serum albumin (PSA) (Sus scrofa, UniProt P08835).
T3 construct: purchased Sigma-Aldrich
T3 sequence (P08835 25-607): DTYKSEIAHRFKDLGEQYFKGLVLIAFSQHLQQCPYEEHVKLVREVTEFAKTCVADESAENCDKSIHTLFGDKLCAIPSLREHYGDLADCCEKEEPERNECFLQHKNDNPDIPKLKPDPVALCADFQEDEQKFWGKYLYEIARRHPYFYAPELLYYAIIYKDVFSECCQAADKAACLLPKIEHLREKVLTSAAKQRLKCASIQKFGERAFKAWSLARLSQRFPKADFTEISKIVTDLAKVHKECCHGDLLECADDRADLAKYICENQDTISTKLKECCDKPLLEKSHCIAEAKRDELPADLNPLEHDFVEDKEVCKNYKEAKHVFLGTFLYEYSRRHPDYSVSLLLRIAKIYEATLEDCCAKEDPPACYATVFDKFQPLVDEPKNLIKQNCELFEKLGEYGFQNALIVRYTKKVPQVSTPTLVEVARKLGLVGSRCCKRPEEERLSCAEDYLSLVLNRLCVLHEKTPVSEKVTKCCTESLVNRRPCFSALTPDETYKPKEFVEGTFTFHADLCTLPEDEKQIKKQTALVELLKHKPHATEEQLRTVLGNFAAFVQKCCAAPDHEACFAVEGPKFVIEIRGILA
Briefly: Fluorescence quenching of porcine serum albumin by mycotoxins. In kind it is binding. Conditions: for logKSV ± SEM (Stern-Volmer quenching constant): PSA 2 μmol/L, PBS pH 7.4, room temperature, λex = 295 nm, λem = 340 nm. Here is the method:
as §1, §2, §3, §4

Series [4] has as its target T4, rat serum albumin (RSA) (Rattus norvegicus, UniProt P02770).
T4 construct: purchased Sigma-Aldrich
Briefly: Fluorescence quenching of rat serum albumin by mycotoxins. The format is binding. Conditions: for logKSV ± SEM (Stern-Volmer quenching constant): RSA 2 μmol/L, PBS pH 7.4, room temperature, λex = 295 nm, λem = 340 nm. The method, then:
as §1, §2, §3, §4

Series [5] addresses T5, HSA (Homo sapiens, UniProt P02768).
T5 construct: purchased Daicel Chiralpak HSA, 50 × 3.0 mm, 5 μm
Nature of the series: High-performance affinity chromatography on HSA-coated column. In kind it is binding. Conditions: Chiralpak HSA column, isopropanol / 0.01 mol/L ammonium acetate pH 7.0 (15:85 v/v%), 0.5 mL/min, room temperature. Here is the method: HPAC was performed with a HSA-coated column (Faisal et al. [2018]). The HPLC system (Jasco, Tokyo, Japan) used for the analysis included an autosampler (AS-4050), a binary pump (PU-4180), and a diode-array detector (MD-4017). A 5-μL volume of samples (ZAN: 200 μmol/L; ZEN, α-ZAL, β-ZAL, and Z14S: 100 μmol/L; Z14G: 50 μmol/L) was driven through a pre-column filter (Waters, Milford, MA, USA) linked to an immobilized HSA-coated HPAC column (Chiralpak® HSA, 50 × 3.0 mm, 5 μm; Daicel, Tokyo, Japan). The isocratic elution was performed with 0.5-mL/min flow rate at room temperature. The mobile phase contained isopropanol (HPLC grade; VWR, Debrecen, Hungary) and 0.01 mol/L pH 7.0 ammonium acetate buffer (15:85 v/v%). Mycotoxins were detected at 235 nm, and chromatograms were evaluated with ChromNAV software.

Series [6] has as its target T6, warfarin-HSA complex (Homo sapiens, UniProt P02768).
T6 construct: purchased Sigma-Aldrich
Briefly: Effect of mycotoxins on warfarin-HSA interaction (warfarin fluorescence). In kind it is binding. The conditions noted are these: warfarin 1 μmol/L, HSA 3.5 μmol/L, mycotoxin 0-15 μmol/L, PBS pH 7.4, λex = 317 nm. The method, then:
as §1, §2
To test the effects of ZEN metabolites on warfarin-HSA interaction, our previously reported method was applied (Faisal et al. [2018]; Fliszár-Nyúl et al. [2019]). In this experiment, the fluorescence emission signal of warfarin (1 μmol/L; λex = 317 nm, λem = 379 nm) was examined in the presence of HSA (3.5 μmol/L) without and with mycotoxins (0, 1, 2, 3, 4, 5, 6, 8, 10, and 15 μmol/L) in PBS (pH 7.4). Under these conditions, approximately 70% of warfarin is albumin-bound.

In series [7] the test system is estrogen receptors. Conditions: cited from earlier work; for xenoestrogenic effects compared with ZEN: ref EFSA 2017, Fleck et al. 2017, Frizzell et al. 2011, Filannino et al. 2011.
The conditions of series [8]: pigs, ref Binder et al. 2017; cited from earlier work.
Series [9] has as its target T1, human serum albumin (HSA). More on the design: method as in Faisal et al. (2018). The conditions noted are these: ref Faisal et al. (2018); cited from earlier work.
Series [10] deals with T2, bovine serum albumin (BSA). More on the design: method as in Faisal et al. (2018). The conditions noted are these: ref Faisal et al. (2018); cited from earlier work.
The target in series [11] is T3, porcine serum albumin (PSA). Further details: method as in Faisal et al. (2018). The conditions noted are these: ref Faisal et al. (2018); cited from earlier work.
The target of series [12] is T4, rat serum albumin (RSA). Further details: method as in Faisal et al. (2018). The conditions noted are these: ref Faisal et al. (2018); cited from earlier work.
In series [13] the target is T6, warfarin-HSA complex. Further details: method as in Poór et al. 2017; Faisal et al. 2018. The conditions noted are these: allosteric interaction with Sudlow's site I ligand; ref Poór et al. 2017; Faisal et al. 2018; cited from earlier work.
Details of series [14]: method as in EFSA 2014. The conditions noted are these: ZEN equivalents for ZEN and its modified forms jointly; ref EFSA 2014; cited from earlier work.
On the set-up of series [15]: method as in Rai et al. 2019. Conditions: ref Rai et al. 2019; cited from earlier work.
Setting [16] is: from binding constants of Table 2.

T4 sequence (P02770 25-608): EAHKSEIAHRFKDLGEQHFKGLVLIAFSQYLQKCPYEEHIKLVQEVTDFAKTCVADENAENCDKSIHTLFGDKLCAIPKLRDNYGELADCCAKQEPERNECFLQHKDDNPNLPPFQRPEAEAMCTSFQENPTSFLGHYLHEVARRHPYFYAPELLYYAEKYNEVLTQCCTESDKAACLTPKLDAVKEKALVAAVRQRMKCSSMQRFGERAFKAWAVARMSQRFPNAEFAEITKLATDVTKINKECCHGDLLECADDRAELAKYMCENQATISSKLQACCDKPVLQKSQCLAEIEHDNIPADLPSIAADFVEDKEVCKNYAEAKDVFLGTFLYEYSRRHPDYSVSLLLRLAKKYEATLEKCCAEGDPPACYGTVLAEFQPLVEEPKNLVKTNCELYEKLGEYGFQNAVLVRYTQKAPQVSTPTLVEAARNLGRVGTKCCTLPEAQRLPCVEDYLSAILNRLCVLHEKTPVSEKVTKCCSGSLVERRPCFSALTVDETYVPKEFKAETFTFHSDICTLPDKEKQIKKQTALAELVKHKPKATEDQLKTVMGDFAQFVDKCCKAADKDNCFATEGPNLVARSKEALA
T6 sequence (P02768 25-609, one chain of several): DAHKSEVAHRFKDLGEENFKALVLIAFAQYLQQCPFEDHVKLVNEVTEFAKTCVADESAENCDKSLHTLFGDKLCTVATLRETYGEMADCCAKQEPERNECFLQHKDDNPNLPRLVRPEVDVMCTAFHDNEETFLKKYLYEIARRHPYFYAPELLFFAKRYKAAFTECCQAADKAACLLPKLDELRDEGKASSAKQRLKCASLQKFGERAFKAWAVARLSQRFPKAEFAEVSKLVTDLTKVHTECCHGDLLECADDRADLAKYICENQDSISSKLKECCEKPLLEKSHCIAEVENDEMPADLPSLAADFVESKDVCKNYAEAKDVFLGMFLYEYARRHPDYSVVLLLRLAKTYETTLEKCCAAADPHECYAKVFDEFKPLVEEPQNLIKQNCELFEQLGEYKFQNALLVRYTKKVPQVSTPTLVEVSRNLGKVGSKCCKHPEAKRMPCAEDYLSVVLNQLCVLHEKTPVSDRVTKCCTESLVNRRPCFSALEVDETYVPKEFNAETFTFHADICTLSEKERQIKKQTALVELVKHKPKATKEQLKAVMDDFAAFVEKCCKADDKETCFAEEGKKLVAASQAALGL
T5 sequence (P02768 25-609): as the sequence (P02768 25-609, one chain of several) above
T1 sequence (P02768 25-609): as the sequence (P02768 25-609, one chain of several) above
T2 sequence (P02769 25-607): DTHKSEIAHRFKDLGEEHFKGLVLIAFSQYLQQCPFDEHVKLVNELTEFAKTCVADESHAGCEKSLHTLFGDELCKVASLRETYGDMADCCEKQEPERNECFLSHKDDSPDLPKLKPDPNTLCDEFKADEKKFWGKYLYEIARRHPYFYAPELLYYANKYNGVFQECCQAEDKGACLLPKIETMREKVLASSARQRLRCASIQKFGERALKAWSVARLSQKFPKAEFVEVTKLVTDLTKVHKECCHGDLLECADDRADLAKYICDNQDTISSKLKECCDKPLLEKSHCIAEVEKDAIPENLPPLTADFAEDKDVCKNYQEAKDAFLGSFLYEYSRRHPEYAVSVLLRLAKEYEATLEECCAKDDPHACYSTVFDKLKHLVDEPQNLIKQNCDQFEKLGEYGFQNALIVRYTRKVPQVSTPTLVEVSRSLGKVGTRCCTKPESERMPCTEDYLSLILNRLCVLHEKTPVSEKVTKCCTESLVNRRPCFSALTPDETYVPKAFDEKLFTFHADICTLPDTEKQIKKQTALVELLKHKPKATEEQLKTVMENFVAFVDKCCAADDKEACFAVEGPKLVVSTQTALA

Consider `C[C@H]1CCCC(=O)CCC/C=C/c2cc(OS(=O)(=O)O)cc(O)c2C(=O)O1` [Z14S, Zearalenone-14-sulfate ammonium salt], for which the “logKSV ± SEM (Stern-Volmer quenching constant)” value (from here on “logKSV ± SEM”) in series [1] came out at 4.64 ± 0.03 L/mol; in [2], 5.32 ± 0.02 L/mol; in series [3], 5.04 ± 0.02 L/mol; in series [4], 5.70 ± 0.02 L/mol. Further, the Kd in series [1] is 20 µM and 19.5 µM; in series [2], 3.72 µM; in [3] it was 7.59 µM; in series [4], 1.17 µM. The “difference in binding affinity, RSA and HSA complex” value in [4] (setting [16]) stood at 16 fold. The “retention time (tR) from HSA-HPAC affinity column” value (shortened to “retention time (tR)”) in [5] is 23.3 min and 23.293 min. Moreover, the “effect on fluorescence emission signal of warfarin at 379 nm (warfarin-HSA interaction)” value (shortened to “effect on fluorescence emission signal”) in [6] is reported as “did not affect the fluorescence at 379 nm”. For the same molecule, in series [7] (in vitro, ref Drzymala et al. 2015), the “lower estrogenicity vs. ZEN” value is reported as 100 fold. In addition, the “intestinal hydrolysis to ZEN after oral administration” value in series [8] was “complete intestinal hydrolysis to ZEN”.

Regarding `C[C@H]1CCCC(=O)CCCCCc2cc(O)cc(O)c2C(=O)O1` [ZAN, zearalanone], the “logKSV ± SEM” value was 4.52 ± 0.04 L/mol in series [1], 4.41 ± 0.04 L/mol in [2], 3.97 ± 0.06 L/mol in series [3] and 5.00 ± 0.03 L/mol in series [4]. Moreover, the Kd is 26.3 µM in [1]; 30.9 µM in series [2] (BSA, quenching data, Hyperquad2006 fitting, 1:1 stoichiometry, PBS pH 7.4, read-out: logK ± SEM (binding constant of mycotoxin-albumin complex) (converted)); 107 µM in series [3]; 7.59 µM in series [4]. Besides, the “difference in binding affinity, RSA vs. PSA complex” value in series [4] (setting [16]) is listed as 14 fold. Moreover, in series [5], the “retention time (tR)” value is 8.0 min and 8.017 min. In series [6], the “effect on fluorescence emission signal” value is “considerably increased the emission signal of warfarin”.

On to `C[C@H]1CCCC(=O)CCC/C=C/c2cc(O)cc(O)c2C(=O)O1` [ZEN, Zearalenone], for which the “retention time (tR)” value in [5] was 12.3 min and 12.267 min. For the same molecule, the “logK ± SEM (binding constant of mycotoxin-albumin complex)” value in series [9] was 5.1 L/mol and 5.09 ± 0.01^a L/mol; in [10], 4.78 ± 0.01^a L/mol; in series [11], 4.57 ± 0.01^a L/mol; in series [12], 5.42 ± 0.00^a L/mol. The “logKSV ± SEM” value in [9] is 5.09 ± 0.01^a L/mol; in series [10] it was 4.81 ± 0.01^a L/mol; in series [11] it was 4.56 ± 0.02^a L/mol; in series [12], 5.50 ± 0.01^a L/mol. The “effect on binding affinity of warfarin towards HSA” value (“effect on binding affinity” below) in series [13] is “increase”. Moreover, the “human tolerable daily intake (TDI)” value in series [14] is on record as 0.25 μg/kg body weight per day. Also, in [15], the IARC carcinogen classification result is given as “group 3 carcinogen”.

As for `C[C@H]1CCC[C@H](O)CCCCCc2cc(O)cc(O)c2C(=O)O1` [α-ZAL, α-zearalanol], the “logKSV ± SEM” value in series [1] is 4.50 ± 0.02 L/mol; in series [2], 4.20 ± 0.05 L/mol; in series [3], 4.30 ± 0.05 L/mol; in [4], 5.21 ± 0.00 L/mol. The Kd in series [1] was 28.2 µM; in [2] it was 45.7 µM; in series [3] it was 41.7 µM; in series [4], 4.9 µM. Moreover, the “difference in binding affinity, RSA vs. BSA complex” value in series [4] (setting [16]) was determined as 9 fold. Also, in series [5], the “retention time (tR)” value is 5.3 min and 5.313 min. Moreover, the “effect on fluorescence emission signal” value in [6] is recorded as “considerably increased the emission signal of warfarin”. Further, the “xenoestrogenic effects compared with ZEN” value in series [7] is “considerably higher xenoestrogenic effects than ZEN”.

With `C[C@H]1CCC[C@H](O)CCC/C=C/c2cc(O)cc(O)c2C(=O)O1` [α-ZEL, α-zearalenol, reference compound], the “effect on binding affinity” value in [13] is “increase”. For the same molecule, in [7], the “xenoestrogenic effects compared with ZEN” value was “considerably higher xenoestrogenic effects than ZEN”.

As for `C[C@H]1CCC[C@@H](O)CCCCCc2cc(O)cc(O)c2C(=O)O1` [β-ZAL, β-zearalanol], the “logKSV ± SEM” value is listed as 4.34 ± 0.04 L/mol in series [1], 3.88 ± 0.06 L/mol in [2], 4.13 ± 0.09 L/mol in [3] and 5.43 ± 0.01 L/mol in series [4]. The Kd in series [1] was 42.7 µM; in series [2], 75.9 µM; in series [3], 70.8 µM; in [4] it was 2.45 µM. Further, in series [4] (setting [16]), the “difference in binding affinity, RSA vs. BSA complex” value was found to be 30 fold. For the same molecule, in [5], the “retention time (tR)” value is 3.1 min and 3.053 min. In addition, the “effect on fluorescence emission signal” value in series [6] is “did not affect the fluorescence at 379 nm”.

Regarding `C[C@H]1CCC[C@@H](O)CCC/C=C/c2cc(O)cc(O)c2C(=O)O1` [β-ZEL, β-zearalenol], the “effect on binding affinity” value in series [13] was “decrease”.
